Measured values published in patent US20100240654A1, “HYDRAZIDE DERIVATIVES” (priority 2004, published 2010).
Structures can show the parent of a compound that is named as a salt.

Legend:
[1] = biological target: T1, human clotting factor VIIa (Homo sapiens, UniProt P08709); test: Inhibitory activity against clotting factor VIIa (chromogenic substrate Spectrozyme FVIIa, with tissue factor); format: biochemical; conditions: 10 nmol/L TF, 5 nmol/L Factor VIIa, room temperature 40 minutes, 405 nm
T1 construct: a human clotting factor VIIa (Factor VIIa) purified sample; purchased Enzyme Research Laboratories (Factor VIIa); Calbiochem (tissue factor) HFVIIa (Factor VIIa); 612151 (tissue factor)
Method: Dimethylsulfoxide (DMSO) solutions were prepared with compounds of the invention at concentration of 10 mmol/L (10 mmol/L compound solutions).
One packet of tris-hydroxymethylaminomethane-preset (Tris Preset) (product of SIGMA Corp., Catalog No. T8293), 8.8 g of sodium chloride (NaCl) and 1 g of bovine serum albumin (BSA) were dissolved in 1 L of water to prepare a Tris-BSA buffer (100 mmol/L Tris, 0.15 mol/L NaCl, 0.1% BSA, pH 7.4).
The Tris-BSA buffer (180 μL) was added to the aforementioned 10 mmol/L compound solution (20 μL). A 10-fold dilution series was prepared for this mixture using the aforementioned Tris-BSA buffer, and solutions with the compound at concentrations of 1.0 mmol/L, 100, 10, 1, 0.1, 0.01 and 0.001 μmol/L were prepared (1.0 mmol-0.001 μmol/L compound solutions).
As a control, a solution was prepared by 10-fold dilution of DMSO with the Tris-BSA buffer (control 10% solution).
After dissolving one packet of Tris preset, NaCl (8.8 g) and BSA (1 g) in water (about 900 mL), there were added 1 mol/L aqueous calcium chloride (CaCl2) (15 mL) and 1 mg/mL aqueous cephalin (30 mL), and the total volume was brought to 1 L by adding water. To this solution was added a human tissue factor (TF) sample (product of Calbiochem, Catalog No. 612151) (450 μg) to a TF sample concentration of 10 nmol/L, and then a human clotting factor VIIa (Factor VIIa) purified sample (product of Enzyme Research Laboratories, Catalog No. HFVIIa) (250 μg) was added to a Factor VIIa purified sample concentration of 5 nmol/L, to prepare an enzyme solution (100 mmol/L Tris-HCl, 0.15 mol/L NaCl, 15 mmol/L CaCl2, 30 μg/mL cephalin, 1 mg/mL BSA, 10 nmol/L TF, 5 nmol/L Factor VIIa).
To 110 μL of this enzyme solution was added 15 μL of each of the 1.0 mmol-0.001 μmol/L compound solutions, and then 25 μL of a 1.0 mmol/L synthetic chromogenic substrate solution (Spectrozyme FVIIa) was added and the mixture was allowed to stand at room temperature for 40 minutes. Next, the amount of 4-nitroanilide released into the solution was quantitated by spectrophotometry (405 nm).
A control measurement was conducted in the same manner, using the control 10% solution instead of the compound solution.
This measurement yielded the enzyme reaction inhibition in the presence of 100 μmol/L to 0.1 nmol/L of each compound of the invention. The enzyme reaction inhibition at each compound concentration was subjected to non-linear regression analysis, and the IC50 value for inhibitory activity of each compound against clotting factor VIIa was calculated.

healthy human plasma = test: Blood clotting time prolongation (prothrombin time, steel ball method); conditions: human thromboplastin, 37° C.

T1 sequence (P08709 213-466 limits assumed): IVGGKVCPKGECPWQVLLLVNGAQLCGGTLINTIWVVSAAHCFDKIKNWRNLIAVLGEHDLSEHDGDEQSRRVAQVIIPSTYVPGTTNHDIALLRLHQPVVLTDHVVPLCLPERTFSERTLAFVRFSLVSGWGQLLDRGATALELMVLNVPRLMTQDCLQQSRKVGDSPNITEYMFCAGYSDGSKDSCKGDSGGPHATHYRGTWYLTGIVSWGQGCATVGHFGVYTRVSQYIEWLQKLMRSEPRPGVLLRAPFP
T1 sequence (P08709 61-212 limits assumed): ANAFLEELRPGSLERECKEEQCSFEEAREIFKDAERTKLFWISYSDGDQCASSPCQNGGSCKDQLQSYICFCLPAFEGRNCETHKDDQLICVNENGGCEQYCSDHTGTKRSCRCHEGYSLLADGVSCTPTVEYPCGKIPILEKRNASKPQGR
T1 sequence (P13726 33-295 partner): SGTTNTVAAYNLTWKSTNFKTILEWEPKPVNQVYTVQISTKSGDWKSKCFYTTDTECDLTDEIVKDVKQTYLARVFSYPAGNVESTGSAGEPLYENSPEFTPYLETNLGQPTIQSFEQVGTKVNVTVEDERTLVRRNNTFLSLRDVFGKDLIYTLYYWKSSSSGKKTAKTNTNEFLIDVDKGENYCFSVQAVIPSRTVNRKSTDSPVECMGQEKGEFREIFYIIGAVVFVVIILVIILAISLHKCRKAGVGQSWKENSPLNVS

Structure (SMILES)	IC50 [1]	h PT × 1.1: compound concentration which produced 10% prolongation compared to the control clotting time (healthy human plasma)
CCOc1cc(C(Nc2ccc(C(=N)N)cc2)C(=O)NNS(=O)(=O)c2ccc(NC(C)=O)cc2)ccc1OC(C)C.O=C(O)C(F)(F)F (centres unmarked) [Example 9, N-(4-(2-(2-(4-Carbamimidoylphenylamino)-2-(3-ethoxy-4-isopropoxyphenyl)acetyl)hydrazinosulfonyl)phenyl)acetamide trifluoroacetate]	316 nM	1.30 µM
CCOc1cc(C(Nc2ccc(C(=N)N)cc2)C(=O)NNC(=O)c2ccncc2F)ccc1OCC(=O)N(C)C.O=C(O)C(F)(F)F (centres unmarked) [Example 60, 2-(4-(1-(4-Carbamimidoylphenylamino)-2-(N′-(3-fluoropyridine-4-carbonyl)-hydrazino)-2-oxoethyl)-2-ethoxyphenoxy)-N,N-dimethyl-acetamide trifluoroacetate]	203 nM	0.30 µM
CCOc1cc(C(Nc2ccc(C(=N)N)cc2)C(=O)NNC(=O)c2ccncc2Br)ccc1OC(C)C.O=C(O)C(F)(F)F (centres unmarked) [Example 34, 4-(2-(N′-(3-Bromopyridine-4-carbonyl)hydrazino)-1-(3-ethoxy-4-isopropoxyphenyl)-2-oxoethylamino)benzamidine trifluoroacetate]	63 nM	1.40 µM
CCOc1cc(C(Nc2ccc(C(=N)N)cc2)C(=O)NNc2ccccn2)ccc1OC(C)C.O=C(O)C(F)(F)F (centres unmarked) [Example 2, 4-(((3-Ethoxy-4-isopropoxyphenyl)-(N′-pyridin-2-ylhydrazinocarbonyl)methyl)amino)benzamidine trifluoroacetate]	96 nM	1.00 µM
CCOc1cc(C(Nc2ccc(C(=N)N)cc2)C(=O)NNC(=O)c2ccncc2F)ccc1OCC(C)(C)N.O=C(O)C(F)(F)F (centres unmarked) [Example X-248, 4-[1-[4-(2-Amino-2-methylpropoxy)-3-ethoxyphenyl]-2-[N′-(3-fluoropyridine-4-carbonyl)-hydrazino]-2-oxoethylamino]benzamidine trifluoroacetate]	173 nM	0.83 µM
CCOc1cc(C(Nc2ccc(C(=N)N)cc2)C(=O)NNC(=O)c2ccncc2Cl)ccc1OCCOC.O=C(O)C(F)(F)F (centres unmarked) [Example 78, 4-(2-(N′-(3-Chloropyridine-4-carbonyl)hydrazino)-1-(3-ethoxy-4-(2-methoxyethoxy)phenyl)-2-oxoethylamino)benzamidine trifluoroacetate]	49 nM	0.42 µM
CCOc1cc(C(Nc2ccc(C(=N)N)cc2)C(=O)NNC(=O)c2ccncc2Cl)ccc1OC(C)C.O=C(O)C(F)(F)F (centres unmarked) [Example 33, 4-(2-(N′-(3-Chloropyridine-4-carbonyl)hydrazino)-1-(3-ethoxy-4-isopropoxyphenyl)-2-oxoethylamino)benzamidine trifluoroacetate]	57 nM	1.10 µM
COc1cc(F)c(C(Nc2ccc(C(=N)N)cc2)C(=O)NNC(=O)c2ccccc2Br)cc1OC.O=C(O)C(F)(F)F (centres unmarked) [Example 72, 4-(2-(N’-(2-Bromobenzoyl)hydrazino)-1-(2-fluoro-4,5-dimethoxyphenyl)-2-oxoethylamino)benzamidine trifluoroacetate]	259 nM	1.20 µM
CCOc1cc(C(Nc2ccc(C(=N)N)cc2)C(=O)NNC(=O)c2cnccc2C)ccc1OCCOC.O=C(O)C(F)(F)F (centres unmarked) [Example 76, 4-(1-(3-Ethoxy-4-(2-methoxyethoxy)phenyl)-2-(N′-(4-methylpyridine-3-carbonyl)hydrazino)-2-oxoethylamino)benzamidine trifluoroacetate]	169 nM	0.63 µM
CCOc1cc(C(Nc2ccc(C(=N)N)cc2)C(=O)NNC(=O)c2ccccc2Cl)ccc1OC(C)CN(C)C.O=C(O)C(F)(F)F (centres unmarked) [Example X-252, 4-(2-(N′-(2-Chlorobenzoyl)hydrazino)-1-(4-(2-dimethylamino-1-methylethoxy)-3-ethoxyphenyl)-2-oxoethylamino)benzamidine trifluoroacetate]	98 nM	0.76 µM
CCOc1cc(C(Nc2ccc(C(=N)N)cc2)C(=O)NNC(=O)c2ccccc2Cl)ccc1OCC(C)(C)N (centres unmarked) [Example X-247, 4-[1-[4-(2-Amino-2-methylpropoxy)-3-ethoxyphenyl]-2-[N′-(2-chlorobenzoyl)-hydrazino]-2-oxoethylamino]benzamidine trifluoroacetate]	336 nM	–
CCOc1cc(C(Nc2ccc(C(=N)N)cc2)C(=O)NNC(=O)c2ccncc2F)ccc1OC(C)CN(C)C.O=C(O)C(F)(F)F (centres unmarked) [Example X-254, 4-(1-(4-(2-Dimethylamino-1-methylethoxy)-3-ethoxyphenyl)-2-(N′-(3-fluoropyridine-4-carbonyl)hydrazino)-2-oxoethylamino)benzamidine trifluoroacetate]	50 nM	0.59 µM
CCOc1cc(C(Nc2ccc(C(=N)N)cc2)C(=O)NNc2ccccc2C(=O)O)ccc1OC(C)CN(C)C.O=C(O)C(F)(F)F (centres unmarked) [Example X-251, 2-(N′-(2-(4-Carbamimidoylphenylamino)-2-(4-(2-dimethylamino-1-methylethoxy)-3-ethoxyphenyl)acetyl)hydrazino)benzoic acid trifluoroacetate]	166 nM	0.68 µM
CCOc1cc(C(Nc2ccc(C(=N)N)cc2)C(=O)NNC(=O)c2cnccc2Cl)ccc1OC(C)C.O=C(O)C(F)(F)F (centres unmarked) [Example 25, 4-(2-(N′-(4-Chloropyridine-3-carbonyl)hydrazino)-1-(3-ethoxy-4-isopropoxyphenyl)-2-oxoethylamino)benzamidine trifluoroacetate]	84 nM	1.20 µM
CCOc1cc(C(Nc2ccc(C(=N)N)cc2)C(=O)NNS(=O)(=O)c2ccccc2S(C)(=O)=O)ccc1OC(C)C.O=C(O)C(F)(F)F (centres unmarked) [Example 10, 4-(1-(3-Ethoxy-4-isopropoxyphenyl)-2-(2-(2-methanesulfonyl)phenylsulfonyl)hydrazino)-2-oxoethylamino)benzamidine trifluoroacetate]	233 nM	–
CCOc1cc(C(Nc2ccc(C(=N)N)cc2)C(=O)NNc2ccccc2C(=O)O)ccc1OC(C)C.O=C(O)C(F)(F)F (centres unmarked) [Example 3, 2-(N′-(2-(4-Carbamimidoylphenylamino)-2-(3-ethoxy-4-isopropoxyphenyl)acetyl)hydrazino)benzoic acid trifluoroacetate]	51 nM	1.00 µM
CCOc1cc(C(Nc2ccc(C(=N)N)cc2)C(=O)NNc2ccccc2C(=O)O)ccc1OCC(=O)N(C)C.O=C(O)C(F)(F)F (centres unmarked) [Example X-246, 2-[N′-[2-(4-Carbamimidoylphenylamino)-2-(4-dimethylcarbamoylmethoxy-3-ethoxyphenyl)acetyl]hydrazino]benzoic acid trifluoroacetate]	165 nM	0.90 µM
CCOc1cc(C(Nc2ccc(C(=N)N)cc2)C(=O)NNc2ccccc2OC)ccc1OCCN(C)C.O=C(O)C(F)(F)F (centres unmarked) [Example 56, 4-(((4-(2-Dimethylaminoethoxy)-3-ethoxyphenyl)-(N′-(2-methoxyphenyl)hydrazinocarbonyl)methyl)amino)benzamidine trifluoroacetate]	198 nM	0.41 µM
CCOc1cc(C(Nc2ccc(C(=N)N)cc2)C(=O)NNS(=O)(=O)c2ccccc2S(C)(=O)=O)ccc1OC(C)C.O=C(O)C(F)(F)F (centres unmarked) [Example 10]	–	1.20 µM
